Source: patent US12275729B2 (Merck Sharp & Dohme LLC, priority 2017, dated 2025)

What follows are compounds tested against IDO1 (Homo sapiens, UniProt P14902) (assay: IDO1 Cellular Assay in HeLa Cells Stimulated with IFNγ). Details: about 48 hours, read-out: Hela IC50.
Type: cell-based
Description: Biological Assays IDO1 Cellular Assay in HeLa Cells Stimulated with IFNγ
HeLa cells were cultured in complete HeLa culture medium (90% EMEM, 10% heat-inactivated fetal bovine serum) and expanded to about 1×10^9 cells. The cells were then collected and frozen down at 1×10^7 cells/vial in 1 mL frozen medium (90% complete HeLa culture medium, 10% DMSO).
Compounds to be tested were serially diluted in ten 3-fold steps in DMSO starting from 10 mM DMSO stocks in Echo low volume plate(s).
Frozen HeLa cells were thawed and transferred into HeLa assay medium (99% complete HeLa culture medium, 1% Pen/Strep) with 20 mL medium/vial of cells. The cells were spun down at 250 g in a table top centrifuge for 5 min and suspended in same volume of HeLa assay medium. The cells were then counted and adjusted to a density of 2×10^5 cells/mL in HeLa assay medium. Sterile L-tryptophan were added to the cells with final concentration of 300 uM L-tryptophan. A small aliquot (2 mL/plate) of HeLa cells were set aside and were not treated with IFNγ, to serve as the Max-E control.
HeLa cells with and without IFNγ were dispensed to the respective wells of 384-well assay plates containing the compounds. The plates were incubated for about 48 hours at a 37° C., 5% CO2 incubator. Afterwards, 12 μL of 0.5 M methyl isonipecotate in dimethyl sulfoxide were added into each well and the plates were sealed and incubated at 37° C. without CO2 overnight. The plates were centrifuged for 1 min at 200×g. The resulting fluorescence was measured in a Spectramax plate reader (Molecular Devices) with a 400 nm excitation filter and a 510 nm emission filter.
Potencies were calculated by […] least squares fit to the four parameter logistic IC50 equation.

Sequence of IDO1 (P14902 whole entry): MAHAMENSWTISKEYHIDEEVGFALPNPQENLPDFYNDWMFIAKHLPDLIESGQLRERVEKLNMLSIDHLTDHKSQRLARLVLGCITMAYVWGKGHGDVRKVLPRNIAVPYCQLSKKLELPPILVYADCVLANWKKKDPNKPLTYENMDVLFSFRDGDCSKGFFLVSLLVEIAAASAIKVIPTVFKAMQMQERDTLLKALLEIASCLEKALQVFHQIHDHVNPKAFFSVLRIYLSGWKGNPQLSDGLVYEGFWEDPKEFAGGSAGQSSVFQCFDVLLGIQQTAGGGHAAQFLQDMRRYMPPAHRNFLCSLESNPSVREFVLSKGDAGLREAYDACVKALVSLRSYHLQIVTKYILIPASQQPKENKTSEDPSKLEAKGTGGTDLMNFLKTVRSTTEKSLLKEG

Row | IC50 | SMILES
1 | 0.0181 µM | CC(NC(=O)c1ccc(F)cc1)c1ccc2c(n1)CCCN2C(=O)c1ccn(C2CC2)n1 (stereo in doubt) [Example 144, N-{(1R)-1-[5-(1-cyclopropyl-1H-pyrazole-3-carbonyl)-5,6,7,8-tetrahydro-1,5-naphthyridin-2-yl]ethyl}-4-fluorobenzamide]
2 | 0.0031 µM | C[C@H](C(=O)Nc1ccc(Cl)cc1)c1ccc2c(c1)CCCN2C(=O)c1cccc(Cl)c1 (single isomer, unassigned) [Example 56]
3 | 0.154 µM | COC(C(=O)Nc1ccc(F)cn1)c1ccc2c(c1)CCCN2C(=O)C1CC1 (single isomer, unassigned) [Example 157, 2-(1-(cyclopropanecarbonyl)-1,2,3,4-tetrahydroquinolin-6-yl)-N-(5-fluoropyridin-2-yl)-2-methoxyacetamide]
4 | 0.024 µM | O=C(Nc1ccc(F)cc1)C(c1ccc2c(n1)CCCN2C(=O)C1CC1)C1CC1 (single isomer, unassigned) [Example 261, 2-(5-(cyclopropanecarbonyl)-5,6,7,8-tetrahydro-1,5-naphthyridin-2-yl)-2-cyclopropyl-N-(4-fluorophenyl)acetamide]
5 | 0.0082 µM | CC(C(=O)Nc1ccc(F)cc1)c1ccc2c(n1)CCCN2C(=O)C1CCCCO1 (single isomer, unassigned) [Example 160, N-(4-fluorophenyl)-2-[5-(oxane-2-carbonyl)-5,6,7,8-tetrahydro-1,5-naphthyridin-2-yl]propanamide]
6 | 0.011 µM | O=C(Nc1ccc(F)cc1)C(c1ccc2c(n1)CCCN2C(=O)C1CC1)C1CC1 (single isomer, unassigned) [Example 262, 2-(5-(cyclopropanecarbonyl)-5,6,7,8-tetrahydro-1,5-naphthyridin-2-yl)-2-cyclopropyl-N-(4-fluorophenyl)acetamide]
7 | 0.0655 µM | Cc1c(C(=O)N2CCCc3cc(C4(C(=O)Nc5ccc(F)cc5)CCC4)ccc32)cnn1C [Example 111, 1-[1-(1,5-dimethyl-1H-pyrazole-4-carbonyl)-1,2,3,4-tetrahydroquinolin-6-yl]-N-(4-fluorophenyl)cyclobutane-1-carboxamide]
8 | 0.0157 µM | CC(C)C(C(=O)Nc1ccc(F)cc1)c1ccc2c(n1)CCCN2C(=O)C1CC1 (centres unmarked) [Example 265, 2-(5-(cyclopropanecarbonyl)-5,6,7,8-tetrahydro-1,5-naphthyridin-2-yl)-N-(4-fluorophenyl)-3-methylbutanamide]
9 | 0.0658 µM | O=C(c1cnn(C2CC2)c1)N1CCCc2cc(C3(C(=O)Nc4ccc(F)cc4)CCC3)ccc21 [Example 113, 1-[1-(1-cyclopropyl-1H-pyrazole-4-carbonyl)-1,2,3,4-tetrahydroquinolin-6-yl]-N-(4-fluorophenyl)cyclobutane-1-carboxamide]
10 | 0.0275 µM | C[C@H](NC(=O)c1ccc(F)cc1)c1ccc2c(c1)CCCN2C(=O)C1(F)CC1 (single isomer, unassigned) [Example 32]
11 | 0.0034 µM | Cc1nc(C(=O)N2CCCc3cc(C(C)C(=O)Nc4ccc(F)cc4)ccc32)no1 (centres unmarked) [Example 47, N-(4-fluorophenyl)-2-[1-(5-methyl-1,2,4-oxadiazole-3-carbonyl)-1,2,3,4-tetrahydroquinolin-6-yl]propanamide]
12 | 0.0015 µM | Cc1ccnc(C(=O)N2CCCc3cc(C4(C(=O)Nc5ccc(F)cn5)CCC4)ccc32)n1 [Example 118, N-(5-fluoropyridin-2-yl)-1-[1-(4-methylpyrimidine-2-carbonyl)-1,2,3,4-tetrahydroquinolin-6-yl]cyclobutane-1-carboxamide]
13 | 0.0018 µM | O=C(C1CCCCO1)N1CCCc2nc(C3(C(=O)Nc4ccc(F)cc4)CCC3)ccc21 (single isomer, unassigned) [Example 179, N-(4-fluorophenyl)-1-[5-(oxane-2-carbonyl)-5,6,7,8-tetrahydro-1,5-naphthyridin-2-yl]cyclobutane-1-carboxamide]
14 | 0.003 µM | Cc1cccc(C(=O)N2CCCc3nc(C(C)NC(=O)c4ccc(F)cc4)ccc32)n1 (centres unmarked) [Example 281, 2-(1-(4-fluorobenzamido)ethyl)-5-(6-methylpicolinoyl)-5,6,7,8-tetrahydro-1,5-naphthyridin-1-ium 2,2,2-trifluoroacetate]
15 | 0.524 µM | C[C@@H](C(=O)Nc1ccc(F)cn1)c1ccc2c(c1)CCCN2C(=O)C1(F)CC1 (single isomer, unassigned) [Example 62]
16 | 1.62 µM | CC(NC(=O)c1ccc(F)cc1)c1ccc2c(n1)CCCN2C(=O)C1(C)CCCCO1 (stereo in doubt) [Example 140, 4-fluoro-N-(1-{5-[(2R)-2-methyloxane-2-carbonyl]-5,6,7,8-tetrahydro-1,5-naphthyridin-2-yl}ethyl)benzamide]
17 | 0.0128 µM | Cc1cc(C(=O)N2CCCc3cc(C4(C(=O)Nc5ccc(F)cn5)CCC4)ccc32)ncn1 [Example 107, N-(5-fluoropyridin-2-yl)-1-[1-(6-methylpyrimidine-4-carbonyl)-1,2,3,4-tetrahydroquinolin-6-yl]cyclobutane-1-carboxamide]

More lines, now with the values behind:

Row | SMILES | IC50
18 | CC(C)CC(=O)N1CCCc2cc(CNC(=O)c3ccc(Cl)c(F)c3)ccc21 [Example 9, 4-chloro-3-fluoro-N-{[1-(3-methylbutanoyl)-1,2,3,4-tetrahydroquinolin-6-yl]methyl}benzamide] | 0.0493 µM
19 | C[C@@H](NC(=O)c1ccc(F)cc1)c1ccc2c(n1)CCCN2C(=O)[C@@H]1CC1(F)F (single isomer, unassigned) [Example 135] | 0.414 µM
20 | O=C(NC1(c2ccc3c(n2)CCCN3C(=O)C2CC2)CCC1)c1ccc(Cl)cc1 [Example 183, 4-chloro-N-{1-[5-(cyclopropanecarbonyl)-5,6,7,8-tetrahydro-1,5-naphthyridin-2-yl]cyclobutyl}benzamide] | 0.0052 µM
21 | COC(=O)N1CCCc2nc(C(C)C(=O)Nc3ccc(Cl)cc3)ccc21 (centres unmarked) [Example 223, methyl 6-{1-[(4-chlorophenyl)amino]-1-oxopropan-2-yl}-3,4-dihydro-1,5-naphthyridine-1(2H)-carboxylate] | 0.0108 µM
22 | CC(C(=O)Nc1ccc(F)cc1)c1ccc2c(c1)CCCN2Cc1cccc(Cl)c1 (single isomer, unassigned) [Example 226, 2-{1-[(3-chlorophenyl)methyl]-1,2,3,4-tetrahydroquinolin-6-yl}-N-(4-fluorophenyl)propanamide] | 0.0436 µM
23 | Cc1nccc(N2CCCc3nc(C4(NC(=O)c5ccc(Cl)cc5)CC4)ccc32)n1 [Example 299, 4-chloro-N-(1-(5-(2-methylpyrimidin-4-yl)-5,6,7,8-tetrahydro-1,5-naphthyridin-2-yl)cyclopropyl)benzamide] | 0.00074 µM
24 | CC(NC(=O)c1ccc(F)cc1)c1ccc2c(n1)CCCN2c1cc(C(F)(F)F)ncn1 (centres unmarked) [Example 235, 4-fluoro-N-(1-{5-[6-(trifluoromethyl)pyrimidin-4-yl]-5,6,7,8-tetrahydro-1,5-naphthyridin-2-yl}ethyl)benzamide] | 0.017 µM
25 | CC(C)CC(=O)N1CCCc2cc(CNC(=O)c3ccc(Cl)c(Cl)c3)ccc21 [Example 8, 3,4-dichloro-N-{[1-(3-methylbutanoyl)-1,2,3,4-tetrahydroquinolin-6-yl]methyl}benzamide] | 0.276 µM
26 | O=C(NCc1ccc2c(c1)CCCN2C(=O)OCc1ccccc1)c1ccc(Cl)cc1 [Example 15, benzyl 6-((4-chlorobenzamido)methyl)-3,4-dihydroquinoline-1(2H)-carboxylate] | 0.0369 µM
27 | CC(NC(=O)c1ccc(F)cc1)c1ccc2c(n1)C(F)(F)CCN2C(=O)C1CC1 (centres unmarked) [Example 193, N-(1-(5-(cyclopropanecarbonyl)-8,8-difluoro-5,6,7,8-tetrahydro-1,5-naphthyridin-2-yl)ethyl)-4-fluorobenzamide] | 5.29 µM

Same assay, conditions: read-out: Hela IC50

Row | IC50 | SMILES
28 | 0.00987 µM | CC(NC(=O)c1ccc(F)cc1)c1ccc2c(n1)CCCN2C(=O)OCCC1CC1(F)F (centres unmarked) [Example 319, 2-(2,2-difluorocyclopropyl)ethyl 6-(1-(4-fluorobenzamido)ethyl)-3,4-dihydro-1,5-naphthyridine-1(2H)-carboxylate]
29 | 0.315 µM | COc1ccnc(N2CCCc3nc(C(C)NC(=O)c4ccc(F)cc4)ccc32)c1 (centres unmarked) [Example 377, 4-fluoro-N-(1-(5-(4-methoxypyridin-2-yl)-5,6,7,8-tetrahydro-1,5-naphthyridin-2-yl)ethyl)benzamide]
30 | 0.352 µM | CC(NC(=O)c1ccc(F)cc1)c1ccc2c(n1)CCCN2c1cc(C#N)ccn1 (centres unmarked) [Example 378, N-(1-(5-(4-cyanopyridin-2-yl)-5,6,7,8-tetrahydro-1,5-naphthyridin-2-yl)ethyl)-4-fluorobenzamide]
31 | 5.7 µM | CC(NC(=O)c1cccc(C#N)c1)c1ccc2c(n1)CCCN2C(=O)OC1CC1 (centres unmarked) [Example 335, cyclopropyl 6-(1-(3-cyanobenzamido)ethyl)-3,4-dihydro-1,5-naphthyridine-1(2H)-carboxylate]
32 | 0.00971 µM | Cc1cc(N2CCCc3nc(C(C)NC(=O)c4ccc(Cl)cc4)ccc32)nc(C(F)(F)F)n1 (centres unmarked) [Example 349, 4-chloro-N-(1-(5-(6-methyl-2-(trifluoromethyl)pyrimidin-4-yl)-5,6,7,8-tetrahydro-1,5-naphthyridin-2-yl)ethyl)benzamide]
